Assay results from PubChem BioAssay (NCI).
“And” between values parts separate entries of the source, which are not always exact repeats. Equal values may be shown once.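 Results reflect a 48-hour exposure of cells in 96-well plates to compound at five concentrations. The concentration for 50% growth inhibition is given as GI50. Definition used: TGI = concentration required for complete inhibition of growth.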

Tests used:
Assay in all cases: NCI-60 cell line screen, 48 h; in the data active = GI50 below about 0.43 µM; inactive = the rest
HCT-116 colon = test system: HCT-116 colon
HOP-62 NSCLC = test system: HOP-62 NSCLC
U251 CNS = test system: U251 CNS
T-47D breast = test system: T-47D breast
MDA-MB-435 = test system: MDA-MB-435
SK-MEL-2 melanoma = test system: SK-MEL-2 melanoma
UACC-62 melanoma = test system: UACC-62 melanoma
RPMI-8226 leukemia = test system: RPMI-8226 leukemia
PC-3 prostate = test system: PC-3 prostate
M14 melanoma = test system: M14 melanoma
NCI-H23 lung = test system: NCI-H23 lung
CCRF-CEM leukemia = test system: CCRF-CEM leukemia
OVCAR-4 ovarian = test system: OVCAR-4 ovarian
COLO 205 colon = test system: COLO 205 colon
A498 renal = test system: A498 renal
TK-10 renal = test system: TK-10 renal
CAKI-1 renal = test system: CAKI-1 renal

CC(=O)C1=C(C)N2C(=NC3=C(CCc4ccccc43)C2c2ccc(F)cc2)S1 (centres undefined)
> 100 µM: TGI (HCT-116 colon) | TGI (HOP-62 NSCLC) | TGI (U251 CNS) | TGI (T-47D breast) | TGI (MDA-MB-435) | TGI (SK-MEL-2 melanoma) | TGI (UACC-62 melanoma) | TGI (PC-3 prostate) | TGI (M14 melanoma) | TGI (NCI-H23 lung) | TGI (CCRF-CEM leukemia) | TGI (OVCAR-4 ovarian) | TGI (COLO 205 colon) | TGI (A498 renal)
85 µM: TGI (RPMI-8226 leukemia)

CCc1n[nH]c(=O)n1/N=C/c1ccccc1O
> 100 µM: TGI (HCT-116 colon) | TGI (HOP-62 NSCLC) | TGI (U251 CNS) | TGI (MDA-MB-435) | TGI (SK-MEL-2 melanoma) | TGI (UACC-62 melanoma) | TGI (RPMI-8226 leukemia) | TGI (TK-10 renal) | TGI (PC-3 prostate) | TGI (M14 melanoma) | TGI (NCI-H23 lung) | TGI (CCRF-CEM leukemia) | TGI (OVCAR-4 ovarian) | TGI (COLO 205 colon)

O=[N+]([O-])c1cccc2nc3ccccc3c(NCCCn3ccnc3[N+](=O)[O-])c12
0.143 µM: TGI (HOP-62 NSCLC)
0.0187 µM: TGI (UACC-62 melanoma)
0.000419 µM: TGI (RPMI-8226 leukemia)
0.00178 µM: TGI (U251 CNS)
0.0489 µM and 0.0392 µM: TGI (TK-10 renal)
0.0236 µM: TGI (PC-3 prostate)
0.00198 µM and 0.0188 µM: TGI (HCT-116 colon)
0.023 µM: TGI (NCI-H23 lung)
0.000256 µM: TGI (M14 melanoma)
0.000231 µM: TGI (MDA-MB-435)
active: GI50 (SK-MEL-2 melanoma) 0.022 µM | GI50 (CCRF-CEM leukemia) 0.0218 µM | GI50 (OVCAR-4 ovarian) 0.0203 µM
0.0735 µM and 0.171 µM: TGI (OVCAR-4 ovarian)
0.0816 µM and 0.188 µM: TGI (CAKI-1 renal)

COP(=O)(OC)C(=O)N1N(c2ccc([N+](=O)[O-])cc2)C(=O)C(C)NC1(NNc1ccc([N+](=O)[O-])cc1)P(=O)(OC)OC (centres undefined)
> 100 µM: TGI (HCT-116 colon) | TGI (CAKI-1 renal) | TGI (HOP-62 NSCLC) | TGI (U251 CNS) | TGI (SK-MEL-2 melanoma) | TGI (UACC-62 melanoma) | TGI (RPMI-8226 leukemia) | TGI (TK-10 renal) | TGI (M14 melanoma) | TGI (NCI-H23 lung) | TGI (CCRF-CEM leukemia) | TGI (OVCAR-4 ovarian) | TGI (COLO 205 colon) | TGI (A498 renal)

CC(=O)O[C@H]1C(=O)[C@@]2(C)[C@H]([C@H](OC(=O)c3cccc([N+](=O)[O-])c3)[C@]3(O)C[C@H](OC(=O)[C@H](O)[C@@H](NC(=O)c4ccccc4)c4ccccc4)C(C)=C1C3(C)C)[C@]1(OC(C)=O)CO[C@@H]1C[C@@H]2O
18.5 µM: TGI (A498 renal)
18.1 µM: TGI (RPMI-8226 leukemia)
0.0114 µM: TGI (MDA-MB-435)
8.52 µM: TGI (M14 melanoma)
> 25 µM: TGI (HCT-116 colon) | TGI (CAKI-1 renal) | TGI (HOP-62 NSCLC) | TGI (SK-MEL-2 melanoma) | TGI (UACC-62 melanoma) | TGI (PC-3 prostate) | TGI (OVCAR-4 ovarian)
> 21.8 µM: TGI (TK-10 renal)

N#Cc1cccc2c1Nc1ccccc1S2
> 100 µM: TGI (HCT-116 colon) | TGI (CAKI-1 renal) | TGI (HOP-62 NSCLC) | TGI (U251 CNS) | TGI (SK-MEL-2 melanoma) | TGI (UACC-62 melanoma) | TGI (RPMI-8226 leukemia) | TGI (TK-10 renal) | TGI (M14 melanoma) | TGI (NCI-H23 lung) | TGI (CCRF-CEM leukemia) | TGI (OVCAR-4 ovarian) | TGI (COLO 205 colon) | TGI (A498 renal)

CCOC(=O)c1c(N)n(-c2ccccc2)c(=O)n(-c2ccccc2)c1=O
> 100 µM: TGI (U251 CNS) | TGI (T-47D breast) | TGI (MDA-MB-435) | TGI (SK-MEL-2 melanoma) | TGI (UACC-62 melanoma) | TGI (RPMI-8226 leukemia) | TGI (TK-10 renal) | TGI (M14 melanoma) | TGI (NCI-H23 lung) | TGI (OVCAR-4 ovarian) | TGI (COLO 205 colon)

N#Cc1nc(CCN2C(=O)c3ccccc3C2=O)oc1N
> 100 µM: TGI (HCT-116 colon) | TGI (CAKI-1 renal) | TGI (HOP-62 NSCLC) | TGI (U251 CNS) | TGI (T-47D breast) | TGI (MDA-MB-435) | TGI (SK-MEL-2 melanoma) | TGI (RPMI-8226 leukemia) | TGI (TK-10 renal) | TGI (PC-3 prostate) | TGI (M14 melanoma) | TGI (NCI-H23 lung) | TGI (CCRF-CEM leukemia) | TGI (OVCAR-4 ovarian) | TGI (COLO 205 colon)

CC(C)(O)/C=C\P(=O)(O)O
> 100 µM: TGI (HCT-116 colon) | TGI (CAKI-1 renal) | TGI (HOP-62 NSCLC) | TGI (U251 CNS) | TGI (T-47D breast) | TGI (MDA-MB-435) | TGI (SK-MEL-2 melanoma) | TGI (UACC-62 melanoma) | TGI (TK-10 renal) | TGI (PC-3 prostate) | TGI (M14 melanoma) | TGI (NCI-H23 lung) | TGI (OVCAR-4 ovarian) | TGI (COLO 205 colon)

CC(Nc1ncc2c(n1)-c1ccccc1OC2)C(=O)O (centres undefined)
> 100 µM: TGI (HCT-116 colon) | TGI (CAKI-1 renal) | TGI (HOP-62 NSCLC) | TGI (U251 CNS) | TGI (MDA-MB-435) | TGI (SK-MEL-2 melanoma) | TGI (UACC-62 melanoma) | TGI (RPMI-8226 leukemia) | TGI (TK-10 renal) | TGI (PC-3 prostate) | TGI (M14 melanoma) | TGI (NCI-H23 lung) | TGI (CCRF-CEM leukemia) | TGI (OVCAR-4 ovarian) | TGI (COLO 205 colon)

Cc1ccn2c(=O)cc(CN3CCOCC3)nc2c1
> 100 µM: TGI (HCT-116 colon) | TGI (CAKI-1 renal) | TGI (HOP-62 NSCLC) | TGI (U251 CNS) | TGI (MDA-MB-435) | TGI (SK-MEL-2 melanoma) | TGI (UACC-62 melanoma) | TGI (RPMI-8226 leukemia) | TGI (TK-10 renal) | TGI (PC-3 prostate) | TGI (M14 melanoma) | TGI (NCI-H23 lung) | TGI (CCRF-CEM leukemia) | TGI (OVCAR-4 ovarian) | TGI (COLO 205 colon)

S=c1[nH]nc(CNc2ccc(-c3n[nH]c(=S)n3-c3ccc(Cl)cc3)cc2)n1-c1ccc(Cl)cc1
78.8 µM: TGI (UACC-62 melanoma)
68.1 µM: TGI (M14 melanoma)
38.9 µM: TGI (COLO 205 colon)
78 µM: TGI (RPMI-8226 leukemia)
36.6 µM: TGI (HOP-62 NSCLC)
40.7 µM: TGI (CAKI-1 renal)
57.7 µM: TGI (SK-MEL-2 melanoma)
> 100 µM: TGI (U251 CNS) | TGI (MDA-MB-435) | TGI (TK-10 renal) | TGI (PC-3 prostate) | TGI (NCI-H23 lung) | TGI (OVCAR-4 ovarian) | TGI (A498 renal)
32.8 µM: TGI (HCT-116 colon)

Nc1ccc2c(O)cc(=O)[nH]c2n1
> 100 µM: TGI (HCT-116 colon) | TGI (CAKI-1 renal) | TGI (U251 CNS) | TGI (T-47D breast) | TGI (MDA-MB-435) | TGI (SK-MEL-2 melanoma) | TGI (UACC-62 melanoma) | TGI (RPMI-8226 leukemia) | TGI (TK-10 renal) | TGI (PC-3 prostate) | TGI (M14 melanoma) | TGI (NCI-H23 lung) | TGI (OVCAR-4 ovarian) | TGI (COLO 205 colon)

Cc1nc(N)c(N2CCN(C(=O)O)CC2)c(=O)[nH]1
> 100 µM: TGI (HCT-116 colon) | TGI (HOP-62 NSCLC) | TGI (U251 CNS) | TGI (T-47D breast) | TGI (MDA-MB-435) | TGI (SK-MEL-2 melanoma) | TGI (RPMI-8226 leukemia) | TGI (TK-10 renal) | TGI (PC-3 prostate) | TGI (M14 melanoma) | TGI (NCI-H23 lung) | TGI (CCRF-CEM leukemia) | TGI (OVCAR-4 ovarian) | TGI (COLO 205 colon) | TGI (A498 renal)

N#Cc1cc(C#N)c(N)nc1N
> 100 µM: TGI (HCT-116 colon) | TGI (CAKI-1 renal) | TGI (HOP-62 NSCLC) | TGI (U251 CNS) | TGI (MDA-MB-435) | TGI (SK-MEL-2 melanoma) | TGI (UACC-62 melanoma) | TGI (RPMI-8226 leukemia) | TGI (TK-10 renal) | TGI (PC-3 prostate) | TGI (M14 melanoma) | TGI (NCI-H23 lung) | TGI (CCRF-CEM leukemia) | TGI (OVCAR-4 ovarian) | TGI (COLO 205 colon) | TGI (A498 renal)
